# Laboratory results reported in patent publication US20220072083A1, “COMPOSITION FOR IMPROVING OR PREVENTING NONALCOHOLIC FATTY LIVER” (KOHJIN LIFE SCIENCES CO., LTD., priority 2015, published 2022).
# Columns and labels:
# [1] = test system: subjects who had NAFLD in 31 IU/L or more of ALT
# [2] = test system: Mice (C57/B6J, 8 weeks old male) fed with high-fat food
# Excerpt: Mice (C57/B6J, 8 weeks old male) were divided into 4 groups (5 animals each), and the first group (DB) was freely fed with ordinary food (CertifiedDiet “MF” manufactured by Oriental Yeast Co., ltd.). The second group (HFD) was freely fed with high-fat food (High Fat Diet 32, manufactured by CLEA Japan, Inc.), […].
# When the mouse was 20 weeks old, the body weight, the liver weight, the serum aspartate aminotransferase (AST), the alanine aminotransferase (ALT), the serum triglyceride (TG), the free fatty acid value (FFA) and the total cholesterol value (T-cho) were measured.
# [3] = HFD6 (6 mg/kg/day) and HFD60 (60 mg/kg/day) groups in comparison to the HFD group, 20 weeks old
compound,measurement,setting,value
N[C@@H](CCC(=O)N[C@@H](CS)C(=O)NCC(=O)O)C(=O)O [glutathione],improvement of ALT after the administration in comparison to ALT before the administration (0 wk),"[1]; Case IDs 1 to 9 (group affected), at least one week after initiation of administration",≥ 20%
same,FibroScan (after treatment) CAP,"[1]; after treatment, oral glutathione 300 mg per day, one subject (Case ID) per table row",280 dBe
same,"serum AST, ALT, TG, FFA, T-cho: comparison of HFD6 group and HFD60 group",[2]; 6 versus 60 mg/kg/day glutathione,decrease dependently on the concentration
same,serum ALT,[2]; [3],significant decrease
same,serum AST,[2]; [3],significant decrease
same,serum FFA (free fatty acid value),[2]; [3],significant decrease
same,serum T-cho (total cholesterol value),[2]; [3],significant decrease
same,serum TG (triglyceride value),[2]; [3],significant decrease
same,deposition of fat on the liver by high-fat food,[2]; concluded from liver weight and liver/body weight ratio,suppressed
same,liver weight,"[2]; high-fat food mice, glutathione 6 and 60 mg/kg/day in water, 20 weeks old",decreased dependently on the concentration
same,body weight,"[2]; high-fat food mice, glutathione 6 or 60 mg/kg/day in water",decrease of the body weight was recognized
